Data from US20200246331A1, “Pharmaceutical combinations and their use” (Novartis AG, priority 2015, published 2020).
pIC50: −log10 of the molar value. Like-named read-outs stand apart in the source and are kept apart here.

Key:
Type in all cases: cell-based
[1] = tested on: UM 92.1 cell line; test: 72 hr CellTiter-Glo cell proliferation assay, 92.1; details: for pIC50: 92.1 cell line, 72 hr CTG, read-out: IC50 single agent activity
Method: (§1) Next, luminescence was recorded using the plate reader.
The percent growth inhibition and excess inhibition were analysed using the Chalice software (CombinatoRx, Cambridge Mass.). […] All remaining points in the grids display results from a combination of the two inhibitors that correspond to the single agent concentrations denoted on the two axes. Data analysis of cell proliferation was performed using Chalice Analyser as described in (Lehar et al. 2009). Excess inhibition was calculated using the Loewe synergy model which measures the effect on growth relative to what would be expected if two drugs behave in a dose additive manner. Positive numbers represent areas of increasing synergy.

[2] = tested on: Mel202 UM cell line; test: 72 hr CellTiter-Glo cell proliferation assay, Mel202; details: read-out: IC50 single agent activity
Method: as §1

[3] = tested on: OMM2.5 UM cell line; test: 72 hr CellTiter-Glo cell proliferation assay, OMM2.5; details: read-out: IC50 single agent activity
Method: as §1

[4] = tested on: Mel285 UM cell line; test: 72 hr CellTiter-Glo cell proliferation assay, Mel285; details: read-out: IC50 single agent activity
Method: as §1

[5] = tested on: Mel270 UM cell line; test: 72 hr CellTiter-Glo cell proliferation assay, Mel270; details: read-out: IC50 single agent activity
Method: as §1

`COc1cc2c(cc1OC(C)C)[C@H](c1ccc(Cl)cc1)N(c1ccc(N(C)C[C@H]3CC[C@H](N4CCN(C)C(=O)C4)CC3)cc1)C(=O)C2` [Compound A, (S)-1-(4-Chloro-phenyl)-7-isopropoxy-6-methoxy-2-(4-{methyl-[4-(4-methyl-3-oxo-piperazin-1-yl)-trans-cyclohexylmethyl]-amino}-phenyl)-1,4-dihydro-2H-isoquinolin-3-one] was tested, and the pIC50 [1] was 6.18, the pIC50 ([2]; Mel202 cell line, 72 hr CTG) was 6.40 and the pIC50 ([3]; OMM2.5 cell line, 72 hr CTG) was 5.59. For the same compound, the pIC50 ([4]; Mel285 cell line, 72 hr CTG) was 5.90 and the pIC50 ([5]; Mel270 cell line, 72 hr CTG) was 6.44.
`COc1ncc(-c2nc3c(n2C(C)C)[C@H](c2ccc(Cl)cc2)N(c2cc(Cl)cn(C)c2=O)C3=O)c(OC)n1` [Compound B, (S)-5-(5-Chloro-1-methyl-2-oxo-1,2-dihydro-pyridin-3-yl)-6-(4-chloro-phenyl)-2-(2,4-dimethoxy-pyrimidin-5-yl)-1-isopropyl-5,6-dihydro-1H-pyrrolo[3,4-d]imidazol-4-one] gave a pIC50 [1] of 7.07, a pIC50 ([2]; Mel202, 72 h) of 7.22 and a pIC50 ([3]; 72 h) of 6.60. The pIC50 ([4]; 72 h) was 6.78 and the pIC50 ([5]; 72 h) was 7.47.
In the case of `CC1(N)CCN(c2cccnc2NC(=O)c2nc(-c3ncccc3C(F)(F)F)cnc2N)CC1` [Compound D, 3-amino-N-(3-(4-amino-4-methylpiperidin-1-yl)pyridin-2-yl)-6-(3-(trifluoromethyl)pyridin-2-yl)pyrazine-2-carboxamide], the “efficacy as single agent compared with the other PKC inhibitor” value ([1]; one UM cell line, single agent) was “more effective as a single agent”.
